From patent US7326540B2, “Methods for identifying compounds that modulate stabilization of secretase-associated proteins” (priority 2003, dated 2008)
Where a SMILES comes first, the peptide text is derived from it. The star is where a group is joined. Cbz = O=C(OCc1ccccc1)*; CH2F = FC*

What was measured:
[1] = tested on: γ-secretase complex proteins; assay: γ-secretase complex protein levels by Western blot in H4 cells; type: cell-based, human; conditions: zVAD treatment
Procedure: Protein levels of PS1, nicastrin, Pen2 and Aph1A (components of the γ-secretase complex) were determined by Western blot (WB) analysis in H4 cells. […] The immature form of nicastrin appeared to be increased earlier (6 hrs) concurrently with caspase-3 activation (FIG. 5A). Furthermore, PS1-NTF, PS1-CTF, Pen2 and Aph1A were also up regulated (FIG. 5A). STS treatment also led to the generation of a caspase-mediated fragment of PS1-CTF (indicated by an arrow as a PS1-CTF). […] As a control for protein loading, the same blot was reprobed with an anti-Cu, Zn-SOD Ab showing that Cu, Zn-SOD protein levels were not increased.

[2] = tested on: E-cadherin; assay: E-cadherin proteolysis in A431 cells during STS-induced apoptosis (Western blot, C36 antibody); type: cell-based, human; conditions: zVAD-FMK 100 μM pre-incubated 30 min, then STS 6 hours
Procedure: FIG. 11 provides digitized images and graphs showing that apoptosis enhances γ-secretase activity and levels of γ-secretase complex proteins. FIG. 11a: Apoptosis was induced in CAB, CHO-CC99/PS1 and CHO-APP 751/PS1 by STS treatment for 6 hours with or without zVAD (100 μM). Secreted Aβ1−total was measured by ELISA. […] Each bar represents the mean and SD of quadruplicate determinations. FIG. 11b: Western blot analysis with the antibody, A8717, detected endogenous APP-FL and overexpressed C99 in CHO-CC99/PS1cells, while overexpressed APP-FL and C83 were detected in CHO-APP751/PS1 cells. FIG. 11c: A431 human epithelial cells were pre-incubated for 30 min in the absence (−) or presence (+) of zVAD-FMK (100 μM), L-685,458 (0.5 μM) or GM6001 (2.5 μM). Cells were then treated with STS for 6 hours to induce apoptosis, and cell extracts were probed with anti-E-cadherin C36 antibody. FIG. 11d: Protein levels of γ-secretase complex components were monitored by Western blotting employing the anti-nicastrin, Ab14, PNT2, H2D2 antibodies. Densitometry analysis was performed using NIH image software. Each bar represents the mean and SEM of at least three experiments. FIG. 11e: Nicastrin was transiently transfected in the A431 cells. Western blot analysis for E-cadherin and γ-secretase complex component was performed as in FIG. 11c and FIG. 11d β-tubulin was used as loading control.
To confirm that apoptosis/caspase activation increases γ-secretase activity, we next examined the proteolysis of E-cadherin, another γ-secretase substrate (Marambaud, P. et al., Embo J21, 1948-56 (2002)) during apoptosis. We confirmed that caspase activation enhanced the production of E-Cad/CTF1 (Steinhusen, U. et al., J Biol Chem 276, 4972-80 (2001)), E-Cad/CTF2 (Marambaud, P. et al., 2002) (˜2- and 3-fold increase by densitometry analysis, respectively), and generated E-Cad/CTF3 (Marambaud, P. et al., 2002) (FIG. 11c). […]

[3] = tested on: CHO cells overexpressing APP751 and PS1 WT; assay: Induction of apoptosis (caspase 3 activation, TUNEL); type: cell-based, Chinese Hamster; conditions: STS 1 μM, after 6 hrs
[4] = tested on: BACE, PS1, nicastrin, Pen-2 and Aph1a mRNA; assay: Northern blot of BACE and γ-secretase complex component mRNA in H4-APP751 cells; type: cell-based, human; conditions: after 6 hours of STS treatment
Procedure: FIG. 14 provides digitized images showing that transcription of BACE and γ-secretase complex components is decreased during apoptosis. Northern Blot analysis: H4-APP751 cells were treated with STS in serum free media. Total RNA was extracted using TRIZOL (Invitrogen). 20 μg of the resulting RNA were analyzed by Northern blot analysis performed as previously described (Koh, Y. H. et al., Faseb J 15, 1472-4 (2001)). Human cDNA of BACE, PS1 , nicastrin, Pen-2, Aph1a was labeled with [α-^32P]dCTP (PerkinElmer) using random hexanucleotide primers (Prime-a-gene labeling system; Promega). Ethidium staining of the gel (lower panel) confirmed equal RNA loading.
We next asked whether apoptosis increases protein levels of BACE, PS1, nicastrin, Pen-2 and Aph1a via increased synthesis. […] We next asked whether BACE, PS1, nicastrin, Pen-2 and Aph1a protein levels are increased during apoptosis due to decreased degradation. […] In contrast, TACE, full-length APP, and APP-CTFs were not stabilized during apoptosis (FIG. 15a). Given that the components of the β-amyloidogenic secretases are stabilized during apoptosis while many other proteins are degraded (e.g. TACE, APP), the apparent increase of protein levels at the latest time points of the CHX+STS time course was most likely due to a relative increase of stabilized protein when normalized for the equal amounts of total protein.

Structure (SMILES)	upregulation of γ-secretase complex proteins during STS-induced apoptosis [1]	generation of E-Cad/CTF3 [2]	Apoptosis (caspase 3 activated, TUNEL positive) [3]	BACE, PS1, nicastrin, Pen-2 and Aph1a mRNA levels [4]
COC(=O)C[C@H](NC(=O)[C@H](C)NC(=O)[C@@H](NC(=O)OCc1ccccc1)C(C)C)C(=O)CF [zVAD] (Cbz-Val-Ala-Asp(OMe)-CH2F)	prevented upregulation	inhibited	–	–
CN[C@@H]1C[C@H]2O[C@@](C)([C@@H]1OC)n1c3ccccc3c3c4c(c5c6ccccc6n2c5c31)C(=O)NC4 [STS, staurosporine]	–	–	induced apoptosis	virtually undetectable
